Where “and” joins values, the source holds several entries; their conditions need not be identical. Equal values may be shown once. Read-outs that look alike come from different tables or passages of the source.
Assays:
[1] = Phase 1 dose escalation: adverse events (CTCAE v4.0), DLT, MTD/RP2D; format: in vivo, human; conditions: orally once daily with 160 mg FdCyd on days 1–6 and 8–13 of each 21-day cycle (dose level 8)
Method: FdCyd and THU were supplied by the NCI Division of Cancer Treatment and Diagnosis. Patients were administered both drugs orally in 21-day cycles, and dose escalation proceeded according to a traditional 3 + 3 design as per the dose escalation schema shown in Supplementary Table S1. […] Patients maintained a study diary to note any side effects or concurrent medications. The NCI Common Terminology Criteria for Adverse Events version 4.0 was used to grade adverse events. Tumor response was assessed by radiography at baseline and every 2 cycles thereafter and evaluated per RECIST version 1.1 [11]. Following determination of the maximum tolerated dose (MTD)/recommended phase 2 dose (RP2D), an additional 13 patients were enrolled on a RP2D expansion cohort for assessments of pharmacodynamic biomarkers in baseline and on-treatment tumor biopsies.
DLTs were defined as toxicities that were at least possibly related to FdCyd or THU within the first cycle of treatment and met one of the following criteria: grade ≥ 3 non-hematological toxicity (including grade 3 nausea, vomiting, or diarrhea only if refractory to standard supportive care; grade 3 electrolyte toxicities only if unable to be corrected to ≤ grade 1 within 24 h; and tumor pain only if refractory to analgesics); grade 4 thrombocytopenia; or grade 4 neutropenia lasting ≥ 5 days or febrile neutropenia. […]

[2] = Plasma pharmacokinetics by LC-MS/MS; format: in vivo, human; conditions: for THU AUC0-6/Dose / THU Cl/F / THU Cmax/Dose / Tmax / Vd/F / half-life / AUC(0-inf) / Cmax / AUC(0-t) / concentration at 24 h / concentration at 48 h: geom. mean (geom. SD); for Tmax: read-out: THU Tmax; for Vd/F: read-out: THU Vz/F; for half-life: read-out: THU t½ (converted); for AUC(0-inf): read-out: THU AUC0-inf; for Cmax: read-out: THU Cmax; for AUC(0-t): read-out: THU AUC0-6; for concentration at 24 h: read-out: THU Cmin24h; for concentration at 48 h: read-out: THU Cmin48h
Method: (§1) Blood specimens for PK analysis were collected on Cycle 1 Day 1 (C1D1) prior to THU administration and then at 15, 30, and 45 min and 1, 2, 3, 4, 5, and 6 h after THU administration, as well as on C1D2 and C1D3 prior to and 2 h after THU administration. Urine specimens for PK analysis were collected on C1D1 prior to treatment and then at every void from 0 to 24 h after THU administration. All specimens for PK analysis were processed and analyzed by LC-MS/MS as described previously, and Phoenix WinNonlin software was used for data analysis.

[3] = Urinary excretion by LC-MS/MS; format: in vivo, human; conditions: geom. mean (geom. SD)
Method: as §1

[4] = cited from earlier work
[5] = test system: leukemias and myelodysplastic syndromes; set-up: method as in PMID 23671007; conditions: specific indications of leukemias and myelodysplastic syndromes; cited from earlier work
[6] = set-up: method as in PMID 21576646; conditions: oral administration, phase 1 study; cited from earlier work
[7] = DL1-DL9: THU 3000 mg oral once daily (n=44)
[8] = DL10-DL11: THU 6000 mg oral twice daily (n=11)
[9] = human, plasma, oral, Total, all dose levels (n=55)
[10] = human, plasma, po, 3000 mg, DL1-DL9: THU 3000 mg oral once daily (n=44)
[11] = human, plasma, po, 6000 mg, DL10-DL11: THU 6000 mg oral twice daily (n=11)
[12] = human, plasma, DL1-DL9: THU 3000 mg oral once daily (n=44)
[13] = human, plasma, DL10-DL11: THU 6000 mg oral twice daily (n=11)

What does the source list for `O=C1NC(O)CCN1[C@@H]1O[C@H](CO)[C@@H](O)[C@H]1O` (stereo partly drawn) [THU, tetrahydrouridine]?
Maximum tolerated dose / RP2D, THU dose [1]: 3000 mg; THU exposure in patients who experienced a DLT vs those who did not ([2]; AUC0−6 P = 0.007, Cmax P = 0.005, C24h P = 0.002, C48h P = 0.004): significantly higher THU exposures; THU AUC0-6/Dose [2, 7]: 2.25 (1.63) µg/L•h / mg; THU Cl/F [2, 7]: 142 L/h and 142 (1.8) L/h; THU Cmax/Dose [2, 7]: 505 (1.7) µg/L / g; THU AUC0-6/Dose [2, 8]: 1.79 (1.37) µg/L•h / mg; THU Cl/F [2, 8]: 190 (1.6) L/h; THU Cmax/Dose [2, 8]: 390 (1.4) µg/L / g; Increase in THU 24 and 48 h trough concentrations ([2]; THU 6000 mg twice daily vs 3000 mg once daily, expected 4-fold): ~10 fold; THU AUC0-6/Dose ([2]; Total, all dose levels (n=55)): 2.15 (1.60) µg/L•h / mg; THU Cl/F ([2]; Total, all dose levels (n=55)): 147 (1.7) L/h; THU Cmax/Dose ([2]; Total, all dose levels (n=55)): 480 (1.6) µg/L / g; THU plasma concentrations for the oral RP2D compared with the intravenous RP2D of 350 mg/m^2 THU ([2]; comparison with ref 8): 9–13 % lower; Tmax [2, 9]: ~3 h; Vd/F [2, 9]: 1830 L; half-life [2, 9]: 8.7 h; bioavailability ([2]; human, plasma, oral, from previous clearance (43 mL/min/m^2) vs current Cl/F (142 L/h), read-out: THU bioavailability in the current study): ~3%; AUC(0-inf) [2, 10]: 21100 ng·h/mL; Cmax [2, 10]: 1520 ng/mL; Tmax [2, 10]: 3 h; Vd/F [2, 10]: 1810 L; half-life [2, 10]: 8.8 h; AUC(0-inf) [2, 11]: 31600 ng·h/mL; Cmax [2, 11]: 2340 ng/mL; Tmax [2, 11]: 3.2 h; Vd/F [2, 11]: 2040 L; half-life ([2]; human, plasma, po, 6000 mg, DL10-DL11: THU 6000 mg oral twice daily, half-life determined for only 6 patients): 7.4 h; AUC(0-t) [2, 12]: 6750 ng·h/mL; concentration at 24 h [2, 12]: 260 ng/mL; concentration at 48 h [2, 12]: 330 ng/mL; AUC(0-t) [2, 13]: 10800 ng·h/mL; concentration at 24 h [2, 13]: 2520 ng/mL; concentration at 48 h [2, 13]: 3170 ng/mL; THU urinary excretion over 0-24 hours of day 1 ([3]; All FdCyd doses + THU 3000 mg, N=42): 2.1 (2.0) % dose; THU urinary excretion over 0-24 hours of day 1 ([3]; All FdCyd doses + THU 6000 mg, N=10): 1.2 (2.5) % dose; THU urinary excretion over 0-24 hours of day 1 ([3]; DL1: FdCyd 30 mg + THU 3000 mg, N=3): 2.9 (2.0) % dose; THU urinary excretion over 0-24 hours of day 1 ([3]; DL2: FdCyd 60 mg + THU 3000 mg, N=3): 2.8 (1.6) % dose; THU urinary excretion over 0-24 hours of day 1 ([3]; DL3: FdCyd 90 mg + THU 3000 mg, N=3): 2.1 (1.4) % dose; THU urinary excretion over 0-24 hours of day 1 ([3]; DL4: FdCyd 120 mg + THU 3000 mg, N=3): 1.1 (4.8) % dose; THU urinary excretion over 0-24 hours of day 1 ([3]; DL5-9: FdCyd 160 mg + THU 3000 mg, N=30): 2.1 (1.8) % dose; THU urinary excretion over 0-24 hours of day 1 ([3]; DL10: FdCyd 60 mg + THU 6000 mg, N=7): 1.1 (2.9) % dose; THU urinary excretion over 0-24 hours of day 1 ([3]; DL11: FdCyd 80 mg + THU 6000 mg, N=3): 1.6 (1.7) % dose; THU urinary excretion over 0-24 hours of day 1 ([3]; Total, all dose levels, N=52): 1.9 (2.1) % dose; THU bioavailability, previously established [4]: 4.1%; THU clearance, previous values ([4]; intravenous THU, ref previous clearance values): 43 mL/min/m^2

With `Nc1ncn([C@@H]2O[C@H](CO)[C@@H](O)[C@H]2O)c(=O)n1` [azacytidine] as the molecule, how does the Response rates [5] read?
The Response rates was greater than 50%.

What about the “Most common grade 3/4 toxicity and dose-limiting toxicity” value [6] of the same molecule?
The value was “diarrhea”.

With `Nc1ncn([C@H]2C[C@H](O)[C@@H](CO)O2)c(=O)n1` [decitabine, 5-aza-2’deoxycytidine] as the molecule, how does the Response rates [5] read?
The Response rates was greater than 50%.

From article PMC12722308, “A phase 1 study of orally administered 5-fluoro-2’-deoxycytidine with tetrahydrouridine in patients with refractory solid tumors” (Cancer Chemotherapy and Pharmacology, 2025)
